Experiments:
[1] = system: PMA-stimulated human neutrophils; assay: HOCl generation by PMA-stimulated neutrophils, oxidation of APF; format: cell-based; settings: PMA 160 nM, mean ± SEM
Experimental: APF is a non-fluorescent derivative of fluorescein, which is oxidized by HOCl, ONOO^−, and HO^• [87], in a concentration-dependent manner. Its selectivity was tested using the myeloperoxidase (MPO) inhibitor, 4-aminobenzoic acid hydrazide (ABAH). The addition of ABAH to human neutrophils, stimulated with PMA, decreased the APF-dependent fluorescence signal to the level of the control assay, ruling out the involvement of HO^• and ONOO^− [88]. The previously established methodology for monitoring oxidative burst modulation was adapted. In a 96-well plate, neutrophils (2 × 10^6 cells/mL) were incubated in the dark at 37 °C for 5 min with APF (2 μM) and the tested compounds (10–100 μM) or DMSO (4%). Quercetin (0.3–5.0 μM) and DPI (0.01–10 μM) were used as controls. After incubation, PMA (160 nM) was added, and the fluorescence (excitation at 495 nm and emission at 528 nm) was measured in a microplate reader (Synergy HT, BIO-TEK Instruments, Inc., Winooski, VT, USA). Kinetic readings were initiated immediately after the addition of APF. Obtained values correspond to the slope measured between 5 and 15 min. Effects are expressed as the percentage inhibition of APF oxidation. The results obtained represent at least three independent experiments.
APF is a non-ﬂuorescent derivative of ﬂuorescein, which is oxidized by HOCl, [20] ONOO-, and HO• [21] in a concentration- dependent manner. Its selectivity was tested using the myeloperoxidase (MPO) inhibitor, 4-aminobenzoic acid hydrazide (ABAH). The addition of ABAH to human neutrophils, stimulated with PMA, decreased the APF-dependent ﬂuorescence signal to the level of the control assay, ruling out the involvement of HO• and ONOO− [22]. The previously established methodology for monitoring oxidative burst modulation was adapted. In a 96-well plate, neutrophils (2 x 10^6 cells/mL) were incubated in the dark at 37 °C for 5 minutes with APF (2 µM) and the tested compounds (10 - 100 µM) or DMSO (4%). Quercetin (0.3 - 5.0 µM) and DPI (0.01 - 10 µM) were used as positive and negative controls, respectively. After incubation, PMA (160 nM) was added, and the ﬂuorescence (excitation at 495 nm and emission at 528 nm) was measured in a microplate reader (Synergy HT, BIO-TEK Instruments, Inc., Winooski, VT, USA). Kinetic readings were initiated immediately after the addition of APF. Obtained values correspond to the slope measured between 5 and 15 minutes. Eﬀects are expressed as the percentage inhibition of APF oxidation. The obtained results represent at least three independent experiments. […]
GraphPad Prism 6 software was used to plot the inhibition percentage versus compound concentration curves, enabling the determination of the concentration required to achieve 50% inhibition (IC50). GraphPad Prism 6 software was also used to perform all statistical analyses.
[…] was estimated by applying the one-way analysis (ANOVA), followed by the Bonferroni’s multiple comparisons test. In all cases, p-values < 0.05 were considered statistically signiﬁcant. The results are expressed as mean ± standard error of the mean (SEM).

human neutrophils = assay: Neutrophils' apoptosis versus necrosis, Annexin V/PI flow cytometry; format: cell-based; settings: for Cytotoxicity in neutrophils: 45 min; for Induction of late apoptosis in neutrophils: Figure S154
Experimental: (§1) The effect of the compounds under study on neutrophil viability was evaluated using flow cytometry. This assessment involved staining with Annexin V (AV) and propidium iodide (PI) from the BD Pharmingen™ FITC Annexin V Apoptosis Detection Kit, following the manufacturer’s protocol. […] Afterwards, the content of each well was transferred to a conical microtube and centrifuged at 400× g, at 20 °C, for 5 min. The neutrophils’ pellets were resuspended in PBS and centrifuged again under the previous conditions. The supernatant was removed, and the solution of Annexin V and PI from the kit was added, resuspending the pellet. The neutrophils were incubated in the dark at room temperature for 15 min and then diluted (dilution factor = 6) with the diluted binding buffer. […] In the flow cytometer, the fluorescence signal of at least 10,000 neutrophils per sample was collected in logarithmic mode and followed in channels 1 and 3. A polygon gate, corresponding to the neutrophil’s population, was drawn according to the light-scattering properties of neutrophils in a forward versus scatter plot. Thus, debris and other blood cells were unaccounted for in the samples. The green fluorescence corresponding to Annexin V was monitored in channel 1 and plotted as a histogram of FL1 staining, whereas the fluorescence corresponding to PI was monitored in channel 3 and plotted in the same histogram as FL3 staining. Neutrophils’ cell death was expressed as a relative percentage of viable, apoptotic, late apoptotic, and necrotic cells compared to a negative control (untreated cells).
(§2) The eﬀect of the compounds under study on neutrophil viability was evaluated using ﬂow cytometry.
(§3) This assessment involved staining with Annexin V (AV) and propidium iodide (PI) from the BD Pharmingen™ FITC Annexin V Apoptosis Detection Kit, following the manufacturer's protocol. Neutrophils (1 x10^6 cells/mL) were incubated in a 24-well plate in the dark at 37 °C for 45 minutes with the positive control (Triton X-100, […]
(§4) Afterwards, the content of each well was transferred to a conical microtube and centrifuged at 400g, at 20 °C, for 5 minutes. The neutrophils’ pellets were resuspended in PBS and centrifuged again under the previous conditions. The supernatant was removed, and the solution of Annexin V and PI from the kit was added, resuspending the pellet. The neutrophils were incubated in the dark at room temperature for 15 minutes and then diluted (dilution factor = 6) with the diluted binding buﬀer. The measurements were performed in a n Accuri C6 ﬂow cytometer (BD, Becton, Dickinson and Company, Franklin Lakes, NJ, USA), and the results were treated with BD Accuri™ C6 software. In the ﬂow cytometer, the ﬂuorescence signal of at least 10,000 neutrophils per sample was collected in logarithmic mode and followed in channels 1 and 3. A polygon gate, corresponding to the neutrophil’s population, was drawn according to the light-scattering properties of neutrophils in a forward vs scatter plot. Thus, debris and other blood cells were unaccounted for in the samples.
(§5) The green ﬂuorescence corresponding to Annexin V was monitored in channel 1 and plotted as a histogram of FL1 staining, whereas the ﬂuorescence corresponding to PI was monitored in channel 3 and plotted in the same histogram as FL3 staining. Neutrophils’ cell death was expressed as a relative percentage of viable, apoptotic, late apoptotic, and necrotic cells compared to a negative control (untreated cells). […]

[2] = as above; format: cell-based, human; settings: human; 50 μM; representative plot, Figure 2; read-out: Q2-LL, viable cells (AV−/PI−)
Experimental: as §1, §2, §3, §4, §5

[3] = tested concentrations, up to 100 μM

Row | Compound | APF: highest obtained % of inhibition ([1]; at 50 µM) | Cytotoxicity in neutrophils (human neutrophils; 50 μM) | Cytotoxicity in neutrophils (human neutrophils; [3]) | APF: highest obtained % of inhibition ([1]; at 25 µM) | Cytotoxicity in neutrophils (human neutrophils; 25 μM) | Induction of late apoptosis in neutrophils (human neutrophils; 50 μM) | inhibition at 50 µM ([1]; Homo sapiens, Neutrophil, at 50 µM, read-out: APF: highest obtained % of inhibition) | inhibition at 25 µM ([1]; Homo sapiens, Neutrophil, at 25 µM, read-out: APF: highest obtained % of inhibition) | viability at 45 min, 50 µM [2]
1 | 3-Hydroxy-2-(galactopyranosyl)propyl dodecanoate [Compound 1e] | <20% ^50µM | no cytotoxicity | non-cytotoxic | – | – | – | – | – | –
2 | 3-Hydroxy-2-galactopyranosylpropyl dioctyl phosphate [Compound 1b] | – | cytotoxic effects | – | 29 ± 10% ^25µM | did not exhibit significant cytotoxicity | induce late apoptosis | – | – | –
3 | OCC(CO)OC1OC(CO)C(O)C(O)C1O [Compound 1a, 2-O-D-(galactopyranosyl)glycerol] | – | – | no cytotoxic activity | – | – | – | 27 ± 6% | – | –
4 | CCCCCCCCCCCC(=O)OCC(CO)OC1OC(COP(=O)(OCCN)OCCN)C(O)C(O)C1O (centres unmarked) [Compound 1h, 2-(6-(bis(2-Aminoethoxy))phosphoryl)galactopyranosyl-3-hydroxypropyl dodecanoate] | – | cytotoxic effects | – | – | did not exhibit significant cytotoxicity | induce late apoptosis | – | < 20% | 53%

From publication PMC12251482, “Floridoside Phosphotriester Derivatives: Synthesis and Inhibition of Human Neutrophils’ Oxidative Burst” (Molecules, 2025)
